Data set [1] can be described thus: AUC (0 to t) in Sprague-Dawley rat at 1 mg/kg, iv administered as bolus dose by HPLC-MS/MS analysis. It counts as ADME, organism-based. The conditions noted are these: in vivo.
Data set [2] is described as follows: Dose normalized AUC in C57BL/6 mouse at 1 mg/kg, iv by LC-MS/MS analysis. The class given is ADME, organism-based. The conditions noted are these: in vivo.
The target in another data set is Coagulation factor IX (Homo sapiens, UniProt P00740). It counts as single protein.
Coagulation factor IX, sequence (P00740 47-191 limits assumed): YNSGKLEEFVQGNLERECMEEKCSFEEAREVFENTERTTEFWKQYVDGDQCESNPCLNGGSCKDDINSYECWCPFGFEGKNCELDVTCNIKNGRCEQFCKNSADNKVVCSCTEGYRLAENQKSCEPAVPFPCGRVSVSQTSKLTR
Coagulation factor IX, sequence (P00740 227-461 limits assumed): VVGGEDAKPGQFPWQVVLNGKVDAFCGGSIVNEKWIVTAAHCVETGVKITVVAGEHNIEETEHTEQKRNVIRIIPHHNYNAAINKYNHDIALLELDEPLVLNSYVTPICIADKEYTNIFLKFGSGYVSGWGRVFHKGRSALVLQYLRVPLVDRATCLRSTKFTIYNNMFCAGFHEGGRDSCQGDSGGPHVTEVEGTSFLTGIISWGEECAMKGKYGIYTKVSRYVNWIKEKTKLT
The target of the next data set is Prothrombin (Homo sapiens, UniProt P00734). The class given is single protein.
Data set [3] can be described thus: Half life in beagle dog at 1 mg/kg, iv by HPLC-MS/MS analysis. The class given is ADME, organism-based, Canis lupus familiaris. The conditions noted are these: in vivo.
The nature of data set [4]: Terminal half life in C57BL/6 mouse at 0.4 mg/kg, iv bolus injection or 3 mg/kg, po by LC-MS/MS analysis. The conditions noted are these: in vivo, read-out: beta t1/2 (converted). The class given is ADME, organism-based.
A further data set is described as follows: physchem. The conditions noted are these: buffer, pH 7.4.
Data set [5] is described as follows: Volume of distribution at steady state in beagle dog at 1 mg/kg, iv by HPLC-MS/MS analysis. It counts as ADME, organism-based, Canis lupus familiaris. The conditions noted are these: in vivo, read-out: Vdss.
Data set [6] can be described thus: Dose normalized Cmax in beagle dog at 75 mg/kg, po via gavage by HPLC-MS/MS analysis. It counts as ADME, organism-based, Canis lupus familiaris. The conditions noted are these: in vivo.
A further data set addresses Plasminogen (Homo sapiens, UniProt P00747). It counts as single protein.
Data set [7] has as its target 3',5'-cyclic-AMP phosphodiesterase 4D (Homo sapiens, UniProt Q08499). Nature of the data set: Inhibition of PDE4D (unknown origin).
A short description of data set [8]: Dose normalized AUC (0 to t) in beagle dog at 10 mg/kg, po via gavage by HPLC-MS/MS analysis. It counts as ADME, organism-based, Canis lupus familiaris. The conditions noted are these: in vivo.
Data set [9] is described as follows: Oral bioavailability in beagle dog at 10 mg/kg via gavage by HPLC-MS/MS analysis. The class given is ADME, organism-based, Canis lupus familiaris. The conditions noted are these: in vivo.
Another data set concerns Plasma. As to the kind of experiment: Effect on coagulation in human plasma assessed as concentration required to double the prothrombin time by thromboplastin-DS reagent based automated coagulometric method. It counts as ADME, cell-free.
The nature of data set [10]: Dose normalized Cmax in beagle dog at 10 mg/kg, po via gavage by HPLC-MS/MS analysis. It counts as ADME, organism-based, Canis lupus familiaris. The conditions noted are these: in vivo.
In the next data set the target is Plasma kallikrein (Homo sapiens, UniProt P03952). The class given is single protein.
Plasma kallikrein, sequence (P03952 20-390 limits assumed): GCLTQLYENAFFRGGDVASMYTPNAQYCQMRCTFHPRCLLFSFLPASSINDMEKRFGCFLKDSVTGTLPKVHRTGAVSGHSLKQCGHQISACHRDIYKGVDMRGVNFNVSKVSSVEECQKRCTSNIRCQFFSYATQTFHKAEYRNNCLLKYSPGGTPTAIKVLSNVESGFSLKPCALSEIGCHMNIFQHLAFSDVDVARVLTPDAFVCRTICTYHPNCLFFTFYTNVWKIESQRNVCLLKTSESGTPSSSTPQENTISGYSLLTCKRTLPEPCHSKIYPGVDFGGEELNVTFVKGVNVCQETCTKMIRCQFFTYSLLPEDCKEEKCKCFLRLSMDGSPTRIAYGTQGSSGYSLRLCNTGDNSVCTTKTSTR
Plasma kallikrein, sequence (P03952 391-638 limits assumed): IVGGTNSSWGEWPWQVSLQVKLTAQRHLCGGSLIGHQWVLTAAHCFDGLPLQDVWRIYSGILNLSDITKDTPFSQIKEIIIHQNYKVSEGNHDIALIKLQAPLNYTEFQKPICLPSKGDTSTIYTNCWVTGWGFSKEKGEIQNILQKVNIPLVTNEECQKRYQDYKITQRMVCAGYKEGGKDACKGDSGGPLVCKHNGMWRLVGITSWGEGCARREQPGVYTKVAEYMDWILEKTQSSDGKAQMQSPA
A short description of data set [11]: Oral bioavailability in Sprague-Dawley rat at 3 mg/kg via gavage by HPLC-MS/MS analysis. The conditions noted are these: in vivo. The class given is ADME, organism-based.
A short description of data set [12]: Volume of distribution at steady state in C57BL/6 mouse at 0.4 mg/kg, iv bolus injection or 3 mg/kg, po by LC-MS/MS analysis. The class given is ADME, organism-based. The conditions noted are these: in vivo, read-out: Vdss.
Data set [13] can be described thus: Oral bioavailability in Sprague-Dawley rat at 100 via gavage mg/kg by HPLC-MS/MS analysis. The class given is ADME, organism-based. The conditions noted are these: in vivo, 100 mg/kg.
The nature of data set [14]: Clearance in C57BL/6 mouse at 0.4 mg/kg, iv bolus injection or 3 mg/kg, po by LC-MS/MS analysis. It counts as ADME, organism-based. The conditions noted are these: in vivo.
Data set [15] is described as follows: Volume of distribution at steady state in Sprague-Dawley rat at 1 mg/kg, iv administered as bolus dose by HPLC-MS/MS analysis. The conditions noted are these: in vivo, read-out: Vdss. It counts as ADME, organism-based.

3',5'-cyclic-AMP phosphodiesterase 4D, sequence (Q08499 whole entry): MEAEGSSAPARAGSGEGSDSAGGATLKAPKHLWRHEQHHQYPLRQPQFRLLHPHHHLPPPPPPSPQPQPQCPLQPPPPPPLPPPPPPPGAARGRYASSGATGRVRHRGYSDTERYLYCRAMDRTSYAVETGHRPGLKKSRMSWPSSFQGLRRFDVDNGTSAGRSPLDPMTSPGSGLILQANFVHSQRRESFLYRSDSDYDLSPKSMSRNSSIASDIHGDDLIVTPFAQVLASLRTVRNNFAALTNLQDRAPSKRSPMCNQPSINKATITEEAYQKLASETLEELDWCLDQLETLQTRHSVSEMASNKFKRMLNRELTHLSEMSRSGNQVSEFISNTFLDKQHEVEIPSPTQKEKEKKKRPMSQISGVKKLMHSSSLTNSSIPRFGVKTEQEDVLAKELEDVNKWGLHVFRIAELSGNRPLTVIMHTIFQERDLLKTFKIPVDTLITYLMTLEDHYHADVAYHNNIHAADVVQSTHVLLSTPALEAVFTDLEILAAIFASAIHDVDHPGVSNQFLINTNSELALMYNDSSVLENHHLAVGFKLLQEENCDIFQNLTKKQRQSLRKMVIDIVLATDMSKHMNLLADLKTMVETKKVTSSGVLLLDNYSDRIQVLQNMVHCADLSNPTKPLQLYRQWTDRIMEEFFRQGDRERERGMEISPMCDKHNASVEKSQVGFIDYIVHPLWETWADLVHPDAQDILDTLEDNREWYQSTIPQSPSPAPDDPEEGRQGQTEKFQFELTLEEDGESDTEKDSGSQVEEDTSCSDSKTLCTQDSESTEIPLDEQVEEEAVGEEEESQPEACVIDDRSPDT
Plasminogen, sequence (P00747 97-580 limits assumed): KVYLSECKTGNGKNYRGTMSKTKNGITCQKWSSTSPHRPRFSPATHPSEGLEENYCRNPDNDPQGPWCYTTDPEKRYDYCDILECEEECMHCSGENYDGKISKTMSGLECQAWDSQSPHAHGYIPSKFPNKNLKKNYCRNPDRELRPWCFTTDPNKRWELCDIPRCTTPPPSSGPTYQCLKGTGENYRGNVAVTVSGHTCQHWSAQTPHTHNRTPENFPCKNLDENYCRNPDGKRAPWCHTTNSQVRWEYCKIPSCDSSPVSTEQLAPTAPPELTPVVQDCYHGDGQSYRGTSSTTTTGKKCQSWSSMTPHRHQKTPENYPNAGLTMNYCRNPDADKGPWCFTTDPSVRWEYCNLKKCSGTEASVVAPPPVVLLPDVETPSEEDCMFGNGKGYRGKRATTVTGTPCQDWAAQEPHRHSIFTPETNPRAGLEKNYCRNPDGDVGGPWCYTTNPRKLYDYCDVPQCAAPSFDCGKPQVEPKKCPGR
Plasminogen, sequence (P00747 581-810 limits assumed): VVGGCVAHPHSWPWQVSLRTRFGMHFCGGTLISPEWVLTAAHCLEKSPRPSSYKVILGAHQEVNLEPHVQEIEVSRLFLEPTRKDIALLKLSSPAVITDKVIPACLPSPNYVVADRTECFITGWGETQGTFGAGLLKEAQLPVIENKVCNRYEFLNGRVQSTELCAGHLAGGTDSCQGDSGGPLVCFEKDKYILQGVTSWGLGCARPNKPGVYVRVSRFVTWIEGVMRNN

The AUC(0-t) is the area under the concentration-time curve up to a stated or last time point. Low readings indicate low exposure, high ones high exposure. A word on the IC50: it is the concentration needed to halve the response being measured. Higher therefore signals weaker potency in that assay. A word on the logD: it is lipophilicity at a set pH, counting ionised and neutral species. For orientation: bioavailability means the share of a dose that reaches the circulation, judged against a reference dose that is usually intravenous. A higher bioavailability goes with good availability. As to `CC(C)c1cc(-c2ccc3c(c2)[C@H](N)CO3)cc([C@H](O)Cn2ccc3cccc(C(=O)O)c32)c1`, the AUC(0-t) in [1] stood at 3.33 µM·h. This molecule also displayed an AUC/dose in data set [2] of 3264 nM·h. The IC50 at Coagulation factor IX came to 1920 nM; at Prothrombin it was 2570 nM; against Plasminogen, 1890 nM; in data set [7], 2400 nM; against Plasma kallikrein, 1 nM. The half-life is 2.8 h in [3] and 3.73 h in data set [4]. Moreover, in “physchem”, the log distribution coefficient (logD) was found to be 2.2. Also, the Vd in data set [5] worked out at 0.3 L/kg; in data set [12] it was 0.57 L/kg; in [15] it was 1.3 L/kg. Moreover, the Cmax/dose in data set [6] is on record as 504 nM; in data set [10], 217 nM. Besides, in data set [8], the AUCt/dose came out at 560 nM·h. Also, the bioavailability in [9] turned out to be 5%; in data set [11] it was 10%; in data set [13], 45%. The 2PT in the data set on Plasma turned out to be 28.7 µM. Further, in data set [14], the clearance was determined as 11 mL/min/kg.

The record behind these values is ChEMBL document CHEMBL4619774 (J Med Chem, 2020).
